Measurements as given in patent US8197864B2, “Preparation, process and a regenerative method and technique for prevention, treatment and glycemic control of diabetes mellitus” (Arjuna Natural Extracts, priority 2004, dated 2012).

Tested on: normal rats
Assay: Hypoglycemic activity of fractions on blood sugar level in fasted normal rats
Format: in vivo, Sprague dawley rats
Settings: glybenclamide 1 mg/kg, metformin 150 mg/kg; for blood sugar level, 1 hr: 1 hr after single oral dose: fractions 100 mg/kg; for blood sugar level, 3 hr: 3 hr after single oral dose: fractions 100 mg/kg; for blood sugar level, 5 hr: 5 hr after single oral dose: fractions 100 mg/kg; for blood sugar level, Fasting: fasting value before administration, single oral dose: fractions 100 mg/kg; for effect on blood glucose level (in words): single oral dose after 4 hours of fasting: fractions 100 mg/kg
Protocol: Activity of different extracts were tested using Sprague dawley rats of either sex aged 3 months weighing 180-200 g. After 3-4 hrs of fasting the rats were divided into 7 groups of 6 in each, one group kept as control and 4 groups were given different fractions (Fraction I, Fraction III, Fraction IV and Fraction V) of extract in the dose of 100 mg/kg. Sixth and seventh groups were given standard drugs glybenclamide (1 mg/kg) and metformin (150 mg/kg) respectively.
(See Table II, graph I) The extract/drug was administered orally (single dose) after 4 hours of fasting. […] In FIG. 2, the graph provides blood glucose level in normal rats in mg/dl measured over a duration of 5 hours. The normal rats were fed with different fractions of the extract after four hours of fasting.

Compound | blood sugar level, 1 hr | blood sugar level, 3 hr | blood sugar level, 5 hr | blood sugar level, Fasting [mg/dL] | effect on blood glucose level (in words)
COc1ccc(Cl)cc1C(=O)NCCc1ccc(S(=O)(=O)NC(=O)NC2CCCCC2)cc1 [Glybenclamide, glybenclamide] | *58.8 ± 9.8 mg/dl | *43.3 ± 8.2 mg/dl | *43.2 ± 5.8 mg/dl | 72.6 ± 8.6 | significant (p<0.05) decrease in blood glucose level in the first hour
CN(C)C(=N)N=C(N)N [Metformin, metformin] | 70.6 ± 3.0 mg/dL | 68.3 ± 2.6 mg/dL | *61.5 ± 3.0 mg/dl | 76.6 ± 4.1 | significant (p<0.05) decrease in blood glucose level in the fifth hour
